The target of the assay is T1, Troponin C, slow skeletal and cardiac muscles [4-85] (Human, UniProt P63316).
T1 construct: 4-85
Briefly: Fluorescence Polarization Assay. The conditions noted are these: pH 7; 14 °C. How it is done: The fluorescence polarization assays were performed at 298 K following a protocol modified from previously reported protocol [Zhuo et al., Mol. Biosyst., 12:2532-2540]. Synthetic peptides were labeled with fluorescein. Titrations were conducted by monitoring polarization as a function of increasing amounts of the proteins of TnC N-terminal domain added to 20 nM fluorescein-peptides in a buffer 50 mM HEPES, pH 7.0, 0.1% Tween 20, 200 mM NaCl and 15 mM DTT.
For orientation: In fluorescence polarisation assays a small probe gives low polarisation when free and higher when bound to something large.

Each structure is given as a SMILES string.

T1 sequence (P63316 4-85): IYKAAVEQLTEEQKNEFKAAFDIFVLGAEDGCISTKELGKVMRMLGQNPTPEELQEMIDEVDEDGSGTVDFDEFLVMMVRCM

As a reminder, the Kd is the concentration at which binding is half-saturated. `CSCC[C@H](NC(=O)[C@H](C)NC(=O)[C@H](CC(=O)O)NC(=O)[C@H](C)N)C(=O)N[C@@H](CCSC)C(=O)N[C@@H](CCC(N)=O)C(=O)N[C@@H](C)C(=O)N[C@@H](CC(C)C)C(=O)N[C@@H](CC(C)C)C(=O)NCC(=O)N[C@@H](C)C(=O)N[C@@H](CCCNC(=N)N)C(=O)O` [ADAMMQALLGAR] displayed a Kd of 15.7 µM. For `CC[C@H](C)[C@H](N)C(=O)N[C@@H](CO)C(=O)N[C@@H](C)C(=O)N[C@@H](CC(=O)O)C(=O)N[C@@H](C)C(=O)N[C@@H](CCSC)C(=O)N[C@@H](CCSC)C(=O)N[C@@H](CCC(N)=O)C(=O)N[C@@H](C)C(=O)N[C@@H](CC(C)C)C(=O)N[C@@H](CC(C)C)C(=O)NCC(=O)N[C@@H](C)C(=O)N[C@@H](CCCNC(=N)N)C(=O)N[C@@H](C)C(=O)N[C@@H](CCCCN)C(=O)N[C@@H](CCC(=O)O)C(=O)N[C@@H](CO)C(=O)O` [ISADAMMQALLGARAKES], binding was characterised by a dissociation constant (Kd) of 4.2 µM.

For the origin of these results see BindingDB's records for doi:10.1016/j.bioorg.2017.05.004 (The Affiliated Hospital of Qingdao University, 2017).
